Read-outs that look alike come from different tables or passages of the source.
What was measured:
NADH/NAD+ ratio = experiment: NADH/NAD+ enzymatic NADH recycling assay; format: cell-based, human; details: for NADH/NAD+ ratio in ethanol-treated cells: with cyanamide, 4 MP, and DADS, data not shown; for NADH/NAD+ ratio: SgPC2 cells, 0.2% ethanol, 5 μM acetaldehyde, 5 μM acetate, 0.2% isopropyl alcohol, 2 mM acetone, 25 mM tert-butanol
[1] = test system: Con1 subgenomic HCV replicon (genotype 1b); experiment: Con1 subgenomic replicon HCV RNA in SgPC2 cells (Northern blot); format: cell-based, hepatitis C virus; details: 24 h; for potentiation of HCV RNA replication by ethanol, acetaldehyde, isopropyl alcohol, acetone, and acetate: 30 min pretreatment with 5 μM lovastatin, 5 μM fluvastatin, 5 μg/ml TOFA or 5 μg/ml cerulenin; for HCV RNA level / HCV replication in SgPC2 cells: 5 μM acetaldehyde, 5 μM acetate, 0.2% isopropyl alcohol, 2 mM acetone, 25 mM tert-butanol, 5 mM lactate
Text: (§1) The genotype 2a HCV constructs, pJFH1 (produces infectious virus particles), replicative-null pJFH1-GND, and subgenomic pSgJFH1-Luc (contains a luciferase reporter gene), are described elsewhere (23, 24). Subgenomic HCV replicons are bicistronic constructs that express only the nonstructural proteins of HCV under the control of encephalocarditis virus IRES; neomycin resistance or firefly luciferase gene is under the control of the HCV IRES (15, 22, 24). These replicons support HCV RNA replication but no virus is formed in cell culture. Huh7 cell clones (SgPC2 cells, Clone B) supporting continuous replication of subgenomic HCV replicon of genotype 1b (Con1 sequence) were also used (17, 22).
(§2) The in vitro transcription, and transfection of HCV RNA, and Huh7 human hepatoma cell culture were performed as previously described (17). For experiments involving stable clones, cells were cultured in medium supplemented with 0.4-0.5 mg/mL G418, and G418 was removed from cell culture medium one day prior to cell treatments, which were performed as described in Results. For the in vitro infectivity assays, 2 ml of the extracellular medium from JFH1 RNA-transfected cells was used to inoculate naive Huh7 or Huh7.5 cells with 3 ml of fresh medium, as described (23, 25). Treatments were initiated 24 hours after infection and the cells were harvested after another 24 or 48 hrs.
(§3) Intracellular RNA extraction and northern blots were carried out, as described (16, 17). DNA probes were prepared from nucleotides (“nt.”) 4128-8273 or 358-2816 of JFH1, generated with ScaI and ApaL I, respectively, or nt. 3669 to 6016 of the Con1 subgenomic replicons. Images were quantified by densitometry, using Optiquant Cyclone 4.00 (Perkin Elmer), and data were normalized by glyceraldehyde 3-phosphate dehydrogenase (GAPDH) mRNA content.

JFH1 HCV (genotype 2a) = format: cell-based, hepatitis C virus
[2] = test system: Huh7 human hepatoma cells
Procedure: NADH and NAD+ levels were determined by enzymatic NADH recycling assay, using the NAD+/NADH Quantification Kit from Biovision, per manufacturers recommendations with an optional filtration step that used Microcon YM-10 (Millipore). Total ATP content was measured using Somatic Cell ATP Assay Kit from Sigma-Aldrich. The data were normalized by total protein content, determined with BCA assay kit from Pierce.
To examine whether ethanol increased the complete replication of HCV, positive-sense genomic JFH1 RNA was produced by in vitro transcription, using T7 RNA polymerase, and transfected into Huh7 human hepatoma cells. Then, the transfected cells were exposed to 0-1.0% (v/v; 0-172 mM) ethanol once daily with a change of medium each day for 48 hrs. Then, the cells and the cell culture medium were harvested and analyzed for intracellular and RNase A-resistant extracellular HCV RNA's by a combination of Northern blots and qRT-PCR.

HCV = details: references 53, 54; cited from earlier work
[3] = test system: intracellular cholesterol; experiment: Total intracellular cholesterol content in SgPC2 cells; format: cell-based, human; details: 24 h
Procedure: FIG. 7. […] SgPC2 cells were treated for 24 h with (A and B) 0.2% ethanol, 5 μM acetaldehyde, 0.2% isopropyl alcohol, 2 mM acetone, 5 μM acetate±30 min pretreatment with (A) 5 μM lovastatin, 5 μM fluvastatin, (B) 5 μg/ml TOFA, 5 μg/ml cerulenin, or with (C) 2 mM β-mercaptopropionic acid (β-MPA). Then, HCV RNA levels were monitored by Northern blot and quantified by densitometry (n=3). D, SgPC2 cells, treated for 24 h with ethanol, acetaldehyde, acetone, and acetate±lovastatin, were monitored for cholesterol levels (n=3). Lovastatin was activated, as described, before use (29). *, indicates statistically significant difference for indicated sample sizes (p<0.05)

[4] = test system: SgJFH1-Luc subgenomic HCV replicon (genotype 2a); format: cell-based, hepatitis C virus
Text: as §1
After various treatments, SgJFH1 Luc RNA-transfected cells were lysed with 1× Reporter Lysis Buffer, and the luciferase activity was determined using Luciferase Reporter Assay Kit (Promega Corp.) (24). Luciferase activities were normalized by total protein content, determined with bicinchoninic acid (BCA) assay kit from Pierce.
To test whether the JFH1 RNA replication was also affected by ethanol, Huh7 cells were transfected with JFH1 SgJFH1-Luc RNA and exposed the cells to ethanol for 48 hours. Then, HCV replication was monitored by measuring the firefly luciferase activity (24).

[5] = test system: Con1 HCV subgenomic replicon; experiment: Con1 subgenomic replicon HCV RNA in Clone B cells; format: cell-based, hepatitis C virus; details: 24 hrs, response compared with SgPC2 cells
Text: as §1, §3

JFH1 virus = experiment: HCV RNA in naive Huh7 or Huh7.5 cells inoculated with JFH1 virus-containing medium; format: cell-based, hepatitis C virus
Procedure: as §2
The total intracellular RNA was obtained from cells using Trizol (Invitrogen). To obtain extracellular HCV RNA, cell culture medium samples were first treated with RNase A (100 μg/ml) for 30 min at room temperature, then RNA was extracted using Trizol LS and glycogen as a carrier. HCV RNA was quantified by qRT-PCR as described (17, 23). For JFH1, the primer sequences were 5′ […] 3′ (nt 146 to 164; forward, SEQ ID NO.: 1), and 5′ […] 3′ (nt 277 to 295; reverse, SEQ ID NO.: 2), and the sequence of the fluorogenic probe, labeled with 6-FAM and TAMRA (Biosearch Technologies, Inc.), was 5′ […] 3′ (nt 168 to 188, SEQ ID NO.: 3). The primer and probe sequences for qRT-PCR analysis of Con1 RNA's were described previously (17). Standard curves were generated using in vitro-transcribed HCV RNA's. Intracellular HCV RNA levels were normalized by 18 S rRNA or GAPDH mRNA.

[6] = 0.2% ethanol ± 0.1 mM 4 MP plus 25 μM DADS
[7] = BSO with 2 mM GSH or GSH ester, 24 hrs
[8] = acetaldehyde at physiologically relevant concentrations, 24 hrs

Compound: Cc1cn[nH]c1 [4 MP, 4-methylpyrazole]
- NADH/NAD+ ratio in ethanol-treated cells (NADH/NAD+ ratio): decreases
- potentiation of HCV replication by ethanol [1, 6]: suppressed

Compound: C=CCSSCC=C [DADS]
- NADH/NAD+ ratio in ethanol-treated cells (NADH/NAD+ ratio): decreases
- potentiation of HCV replication by ethanol [1, 6]: suppressed

Compound: CCOC(=O)CNC(=O)[C@H](CS)NC(=O)CC[C@H](N)C(=O)O [GSH ethyl ester]
- restoration of extracellular HCV RNA in BSO-treated cells (JFH1 HCV (genotype 2a); [7]): partially restored
- restoration of intracellular HCV RNA in BSO-treated cells (JFH1 HCV (genotype 2a); [7]): partially restored

Compound: N[C@@H](CCC(=O)N[C@@H](CS)C(=O)NCC(=O)O)C(=O)O [GSH, glutathione]
- restoration of intracellular HCV RNA in BSO-treated cells (JFH1 HCV (genotype 2a); [7]): could not restore

Compound: OO [H2O2, Hydrogen peroxide]
- cytotoxicity in JFH1 cells ([2]; 100 μM H2O2): some cytotoxicity
- cytotoxicity in JFH1 cells ([2]; 25 and 50 μM H2O2): clearly within the subtoxic range
- JFH1 RNA levels (JFH1 HCV (genotype 2a); 25, 50, and 100 μM bolus H2O2, 24 hrs): decreased

Compound: CCCCCCCCCCCCCCOc1ccc(C(=O)O)o1 [TOFA, 5-(Tetradecyloxy)-2-furoic acid]
- basal level of HCV replication (HCV): suppress
- potentiation of HCV RNA replication by ethanol, acetaldehyde, isopropyl alcohol, acetone, and acetate ([1]; SgPC2 cells): almost completely inhibited

Compound: CC=O [acetaldehyde]
- total intracellular cholesterol content [3]: increased
- HCV RNA content in non-virus producing JFH1 cells [4, 8]: significantly increased
- HCV RNA content in virus-producing JFH1 cells (JFH1 HCV (genotype 2a); [8]): significantly increased
- NADH/NAD+ ratio (NADH/NAD+ ratio; 3 h): increases
- HCV RNA level / HCV replication in SgPC2 cells [1]: elevated
- HCV RNA in Clone B cells [5]: responded similarly
- HCV replication in RIG-1-defective Huh7.5 cells (JFH1 virus; FIG. 5, also data not shown): increase
- HCV replication in naive cells infected with virus-containing medium (JFH1 virus; Huh7.5 cells, acetaldehyde 24 hrs): significant increases

Compound: CC(=O)O [acetate]
- total intracellular cholesterol content [3]: increased
- NADH/NAD+ ratio (NADH/NAD+ ratio; 3 h): increases
- HCV RNA level / HCV replication in SgPC2 cells [1]: increased

Compound: CC(C)=O [acetone]
- total intracellular cholesterol content [3]: increased
- NADH/NAD+ ratio (NADH/NAD+ ratio; 3 h): increases
- HCV RNA level / HCV replication in SgPC2 cells [1]: increased

Compound: C/C=C/C/C=C/CCC(=O)[C@H]1O[C@H]1C(N)=O [cerulenin]
- basal level of HCV replication (HCV): suppress
- potentiation of HCV RNA replication by ethanol, acetaldehyde, isopropyl alcohol, acetone, and acetate ([1]; SgPC2 cells): almost completely inhibited

Compound: N#CN [cyanamide]
- NADH/NAD+ ratio in ethanol-treated cells (NADH/NAD+ ratio): decreases
- potentiation of HCV replication by ethanol ([1]; 0.2% ethanol ± 0.1 mM cyanamide): suppressed

Compound: CC(C)O [isopropyl alcohol]
- NADH/NAD+ ratio (NADH/NAD+ ratio; 3 h): increases
- HCV RNA level / HCV replication in SgPC2 cells [1]: increased

Compound: CC(O)C(=O)O (centres unmarked) [lactate]
- total intracellular cholesterol content [3]: no significant effect
- NADH levels (NADH/NAD+ ratio; 5 mM lactate, 3 h): 235.9±11.9 % of the control level
- HCV RNA level / HCV replication in SgPC2 cells [1]: little to no effect

Compound: CC[C@H](C)C(=O)O[C@H]1C[C@@H](C)C=C2C=C[C@H](C)[C@H](CC[C@@H]3C[C@@H](O)CC(=O)O3)[C@H]21 [lovastatin, Lovastatin]
- increase of intracellular cholesterol content by ethanol, acetaldehyde, acetone, and acetate ([3]; ± lovastatin): attenuated
- basal level of HCV replication (HCV): suppress
- potentiation of HCV RNA replication by ethanol, acetaldehyde, isopropyl alcohol, acetone, and acetate ([1]; SgPC2 cells): almost completely inhibited

Compound: CC(C)(C)O [tert-butanol]
- NADH/NAD+ ratio (NADH/NAD+ ratio; 3 h): did not elevate
- HCV RNA level / HCV replication in SgPC2 cells [1]: did not elevate

Compound: O=C(O)CCS [β-mercaptopropionic acid]
- increase in HCV replication ([1]; 2 mM β-mercaptopropionic acid, SgPC2 cells): 15.2±1.7 fold

Compound: glucose oxidase [GO]
- effect on the suppression of subgenomic JFH1 RNA replication by BSO [4]: exacerbated the suppression
- decrease of intracellular JFH1 RNA (JFH1 HCV (genotype 2a); 0.25 mU/mL GO + glucose, 24 hrs): 30±8%
- effect on the suppression of HCV RNA by BSO (JFH1 HCV (genotype 2a); GO + glucose after 16 hr pre-treatment with 20 μM BSO, 24 hrs): exacerbated the suppression

Reference: patent publication US20100226888A1, “Ethanol Enhances the Complete Replication of Hepatitis C Virus: the Role of Acetaldehyde” (priority 2009, published 2010)
